Experimental data as given in patent publication US11926841B2, “AAV-based conditional expression system” (priority 2016, dated 2024).

How the values were obtained:
Type in all cases: cell-based
[1] = system: wild type ACV sensitive HSV-1 laboratory strain; assay: AAV replicon based ACV resistance test in LE2D8 cells (GLuc luciferase readout), sensitive HSV-1; conditions: ACV 6-12 μg/mi, MOI 0.035, 48 hpi
Protocol: The cell line LE2D8 was seeded onto 96-well-plates at density of 3.3×10^4 cell/well. Two hours after seeding the cells were left untreated or were treated with different concentrations of ACV (CAS: 59277-89-3) (ranging from 0.05 to 144 μg/ml). Right after treatment the cells were infected with either a wild type ACV sensitive HSV-1 laboratory strain or an ACV resistant strain (kindly provided from Dr. Gundula Jäger, Max von Pettenkofer-Institute, LMU Munich) using an MOI of 0.035. After only 48 hpi luciferase activity in 20 μl of the supernatant was measured as the previous experiments. The luciferase activities of the ACV treated cells were compared to the luciferase activities obtained after infection of the non-treated cells. The luciferase induction of the non-treated cells was set 100% and the activity of the ACV treated cells was depicted as % of the non-treated values (FIG. 5A).

[2] = system: ACV sensitive HSV-1 laboratory strain; assay: Endpoint dilution assay (TCID50) of supernatants of ACV treated infected LE2D8 cells, sensitive HSV-1; conditions: ACV 1, 6, 12, 48 and 96 μg/ml; counts at day 7
Text: (§1) For the validation of the new established replicon based assay we made an endpoint-dilution-assay to monitor the amount of the produced viruses in presence of the ACV treatment. This standardised assay for detection of viral growth is very sensitive but very time consuming since 5-7 days are required to obtain the results. To test the virus production in our assay condition with the standard method the sensitive and ACV-resistant HSV-1 containing assay supernatants of the infected LE2D8 cells treated with different concentrations of ACV (n.t., 1, 6, 12, 48 and 96 μg/ml) were collected. Subsequently endpoint dilution assays were performed using HEK-cells in a 96 well plate format. The Tissue Culture Infection Dose 50 (TCID50) was calculated after collecting the infectivity counts at day 7 (FIG. 5B).

[3] = system: ACV-resistant HSV-1; assay: Endpoint dilution assay (TCID50) of supernatants of ACV treated infected LE2D8 cells, resistant HSV-1; conditions: ACV 1, 6, 12, 48 and 96 μg/ml; counts at day 7
Text: as §1

[4] = system: ACV sensitive HSV-2 isolate; assay: AAV replicon based resistance test with clinical HSV-2 isolates, sensitive isolate; conditions: ACV 20 μM and higher; LE2D8 cells; 48 hpi
Protocol: (§2) For testing the single HSV-2 virus isolates, LE2D8 were seeded to 3.3×10^4 cells in a 96 well format, 2 hours before treatment with 0.8, 4, 20, 100 and 500 μM ACV and infection with 1:10 diluted HSV-2 isolates, always using technical triplicates. After 48 hpi, GLuc activity in the supernatant was measured by luminometry and values were compared to non-treated and mock infected cells as above. In FIGS. 6A and 6B we show example of the replicon response induced by an ACV sensitive HSV2- and one of an ACV resistant HSV-2 isolate.

[5] = system: ACV resistant HSV-2 isolate; assay: AAV replicon based resistance test with clinical HSV-2 isolates, resistant isolate; conditions: ACV 0.8, 4, 20, 100 and 500 μM; LE2D8 cells; 48 hpi
Protocol: as §2

Structure (SMILES): Nc1nc2c(ncn2COCCO)c(=O)[nH]1 [ACV, Aciclovir]
- luciferase activity, % of non-treated cells [1]: 20%
- virus replication under ACV treatment (TCID50, endpoint dilution) [2]: indeed inhibited by ACV treatment
- virus replication under ACV treatment (TCID50, endpoint dilution) [3]: could not inhibit the replication
- GLuc activity compared to non-treated cells [4]: decreasing amounts of GLuc activity
- GLuc induction, % of the non-treated values [5]: ≥ 50%
